In BigSolDB 2.1:

Cc1ccc(C(=O)O)cc1
solubility (mole fraction)
Conditions | 278.15 K | 283.15 K | 288.15 K | 293.15 K | 298.15 K | 303.15 K | 308.15 K | 313.15 K | 318.15 K | 323.15 K
in acetone | 0.0354 | 0.041 | 0.0469 | 0.0544 | 0.062 | 0.0728 | 0.0838 | 0.0943 | 0.11 | 0.125
in acetonitrile | 0.00596 | 0.0068 | 0.00776 | 0.0087 | 0.00976 | 0.0112 | 0.0127 | 0.0146 | 0.0163 | 0.0187
in ethanol | 0.0272 | 0.0308 | 0.0346 | 0.0396 | 0.0442 | 0.05 | 0.0549 | 0.0603 | 0.0684 | 0.0765
in isopropanol | 0.0397 | 0.0437 | 0.0488 | 0.0528 | 0.0588 | 0.0648 | 0.0715 | 0.0779 | 0.0868 | 0.0959
in methanol | 0.0354 | 0.041 | 0.0485 | 0.0568 | 0.0636 | 0.0744 | 0.0865 | 0.0999 | 0.115 | 0.132
in n-butanol | 0.0359 | 0.0396 | 0.0444 | 0.051 | 0.0578 | 0.0651 | 0.0735 | 0.0836 | 0.094 | 0.105
